Counter-ions that a name gives are not always drawn.

As a reminder, the melting point is the temperature of the solid-liquid transition.

A short description of data set [1]: Stability at ambient temperature (observation on isolated compound). The data set is classed as physicochemical. The protocol:
Example 37 was hydrolyzed as described in general procedure 3 to afford the title compound (45%) as a yellow solid: mp 124-126° C.; 1H-NMR (acetone-d6) δ 2.47 (s, 3H), 3.09 (s, 3H), 408(s, 2H), 5.25 (s, 2H), 6.70 (d, 2H), 6.91 (d, 2H), 7.83 (d, 2H), 8.16 (d, 2H); MS m/z 437(M+1)−.

The next data set deals with T1, hPPARδ (Homo sapiens, UniProt Q03181).
T1 construct: polyHis; made in house; host or cells: E. coli
T1 sequence (Q03181 211-439 limits assumed): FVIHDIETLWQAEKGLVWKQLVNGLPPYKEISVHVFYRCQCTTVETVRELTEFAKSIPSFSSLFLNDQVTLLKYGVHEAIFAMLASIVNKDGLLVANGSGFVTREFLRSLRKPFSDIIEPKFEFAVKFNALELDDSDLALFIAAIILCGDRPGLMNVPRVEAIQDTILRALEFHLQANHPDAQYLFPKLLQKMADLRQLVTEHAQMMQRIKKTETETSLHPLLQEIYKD
In words: Scintillation Proximity Assay (SPA) binding to PPAR ligand binding domain. The following applies: radioligand GW 2433 for PPARδ, receptor subtype not named in the result sentence, read-out: Apparent pKi (converted). The protocol: Compounds were tested for their ability to bind to hPPARγ hPPARα, or PPARδ using a Scintillation Proximity Assay (SPA). The PPAR ligand binding domain (LBD) was expressed in E. coli as polyHis tagged fusion proteins and purified. The LBD was then labeled with biotin and immobilized on streptavidin-modified scintillation proximity beads. The beads were then incubated with a constant amount of the appropriate radio ligand (^3H-BRL 49653 for PPARγ, 2-(4-(2-(2,3-Ditritio-1-heptyl-3-(2,4-difluorophenyl)ureido)ethyl)phenoxy)-2-methylbutanoic acid (described in WO/008002) for hPPARα and GW 2433 (see Brown, P. J et al. Chem. Biol. 1997, 4, 909-918. For the structure and synthesis of this ligand) for PPARδ) and variable concentrations of test compound, and after equilibration the radioactivity bound to the beads was measured by a scintillation counter. The amount of nonspecific binding, as assessed by control wells containing 50 μM of the corresponding unlabelled ligand, was subtracted from each data point. For each compound tested, plots of ligand concentration vs. CPM of radio ligand bound were constructed and apparent Ki values were estimated from nonlinear least squares fit of the data assuming simple competitive binding. […]
On the technique in general: In a scintillation proximity assay essentially only radioactivity close to the scintillant gives light.

The subject of a further data set is obese rhesus monkeys. The data set is described as follows: 6-month dose escalation study in obese rhesus monkeys. Type of data set: in vivo, rhesus monkey. The protocol:
The compound of Example 66 was examined in a Rhesus model. […] HDLc increased by more than 40% in each monkey at the 3 mg/kg dose. […] Serum TG concentrations decreased by more than 30% in each monkey. Fasting insulin decreased by more than 20% in each monkey. Serum fibrinogen concentrations decreased by 10 20%, with peak activity observed at doses of 0.3 and 1 mg/kg.

Consider `Cc1nc(-c2ccc(C(F)(F)F)cc2)sc1CSc1ccc(CC(=O)O)cc1` (as salt: salt) [Example 48, 2-{4-[({4-Methyl-2-[4-(trifluoromethyl)phenyl]-1,3-thiazol-5-yl}methyl)sulfanyl]phenyl}acetic Acid], for which the melting point fell in the range of 202 to 203 °C. For the compound `Cc1nc(-c2ccc(C(F)(F)F)cc2)oc1COc1ccc(CC(=O)O)cc1Cl` (as salt: salt) [Example 50, 2-[3-Chloro-4-({4-methyl-2-[4-(trifluoromethyl)phenyl]-1,3-oxazol-5-yl}methoxy)phenyl]acetic Acid], the melting point lay in the range of 189 to 191 °C. Take `COc1cc(CC(=O)O)ccc1SCc1sc(-c2ccc(C(F)(F)F)cc2)nc1C` (as salt: salt) [Example 52, 2-{3-Methoxy-4-[({4-methyl-2-[4-(trifluoromethyl)phenyl]-1,3-thiazol-5-yl}methyl)sulfanyl]phenyl}acetic Acid]: the melting point lay within 181 to 182 °C. Regarding `COc1cc(CCC(=O)O)ccc1OCc1sc(-c2ccc(C(F)(F)F)cc2)nc1C` [Example 6, 3-[3-Methoxy-4-({4-methyl-2-[4-(trifluoromethyl)phenyl]-1,3-thiazol-5-yl}methoxy)phenyl]propanoic Acid], the melting point lay in the range of 150 to 152 °C. Regarding `Cc1sc(-c2ccc(C(F)(F)F)cc2)nc1CCOc1ccc(CCC(=O)O)cc1` [Example 10, 3-[4-(2-{5-Methyl-2-[4-(trifluoromethyl)phenyl]-1,3-thiazol-4-yl}ethoxy)phenyl]propanoic Acid], the melting point was in the range of 142 to 147 °C. Still for that read-out and setting: then `Cc1nc(-c2ccc(C(F)(F)F)cc2)sc1CCOc1ccc(CCC(=O)O)cc1` [Example 14], with 128 to 130 °C; and `Cc1nc(-c2cccc(C(F)(F)F)c2)oc1COc1ccc(CCC(=O)O)cc1` [Example 16, 3-[4-({4-Methyl-2-[3-(trifluoromethyl)phenyl]-1,3-oxazol-5-yl}methoxy)phenyl]propanoic Acid], with 134 to 135 °C. Consider `Cc1nc(-c2ccc(C(F)(F)F)cc2)oc1COc1ccc(/C=C/C(=O)O)cc1` [Example 22, (E)-3-[4-({4-Methyl-2-[4-(trifluoromethyl)phenyl]-1,3-oxazol-5-yl}methoxy)phenyl]-2-propenoic Acid], for which the melting point came to 193 °C.

`COc1cc(CCC(=O)O)ccc1OCc1oc(-c2ccc(C(F)(F)F)cc2)nc1C` [Example 24] displayed a melting point of 162 to 163 °C. For `Cc1nc(-c2ccc(C(F)(F)F)cc2)sc1CCOc1ccc(CC(=O)O)cc1` [Example 32], the melting point lay in the range of 128 to 130 °C. Same read-out and setting: then `Cc1nc(-c2ccc(C(F)(F)F)cc2)sc1COc1ccc(CC(=O)O)cc1Cl` [Example 36, 2-[3-Chloro-4-({4-methyl-2-[4-(trifluoromethyl)phenyl]-1,3-thiazol-5-yl}methoxy)phenyl]acetic Acid], with 126 to 127 °C. Compound `Cc1nc(-c2ccc(C(F)(F)F)cc2)sc1COc1ccc(N(C)CC(=O)O)cc1` [Example 38, N-Methyl-N-[4-(2-[4-Trifluromethylphenyl]-4-methyl-thiazole-5-ylmethoxy)phenyl]-acetic Acid] gave a melting point of 124 to 126 °C. Besides, in data set [1], the “stability at ambient temperature” value is “unstable and gradually decomposed at ambient temperature”. In turn, `Cc1nc(-c2ccc(C(F)(F)F)cc2)oc1COc1ccc(SCC(=O)O)cc1` [Example 44, 2-{[4-({4-Methyl-2-[4-(trifluoromethyl)phenyl]-1,3-oxazol-5-yl}methoxy)phenyl]sulfanyl}acetic Acid] showed a melting point of 138 to 140 °C. Still for that read-out and setting: the result for `Cc1cc(OCc2sc(-c3ccc(C(F)(F)F)cc3)nc2C)ccc1OCC(=O)O` [Example 54, 2-[2-Methyl-4-({4-methyl-2-[4-(trifluoromethyl)phenyl]-1,3-thiazol-5-yl}methoxy)phenoxy]acetic Acid] reads 174 to 176 °C.

For the compound `COC(=O)COc1ccc(SCc2sc(-c3ccc(C(F)(F)F)cc3)nc2C)cc1` [Example 61, Methyl 2-{4-[({4-Methyl-2-[4-(trifluoromethyl)phenyl]-1,3-thiazol-5-yl}methyl)sulfanyl]phenoxy}acetate], on hPPARδ, the Ki is > 316 nM. In the case of `Cc1nc(-c2ccc(C(F)(F)F)cc2)sc1CSc1ccc(OCC(=O)O)cc1` [Example 62, 2-{4-[({4-Methyl-2-[4-(trifluoromethyl)phenyl]-1,3-thiazol-5-yl}methyl)sulfanyl]phenoxy}acetic Acid], the melting point came to 190 °C.

In the case of `Cc1cc(SCc2sc(-c3ccc(C(F)(F)F)cc3)nc2C)ccc1OCC(=O)O` [Example 66, 2-{2-Methyl-4-[({4-methyl-2-[4-(trifluoromethyl)phenyl]-1,3-thiazol-5-yl}methyl)sulfanyl]phenoxy}acetic Acid], in the data set with obese rhesus monkeys (3 mg/kg dose bid, in each monkey), the HDLc increase entry is recorded as “more than 40%”. Moreover, the “HDLc change with each dose” value with obese rhesus monkeys (0.1, 0.3, 1, and 3 mg/kg bid for 28 days each) is listed as “raised HDLc with each dose”. Also, the “LDLc particle composition (NMR analysis of lipoprotein particles)” value in the data set with obese rhesus monkeys (dose escalation 0.1-3 mg/kg bid) is “shift in the LDLc composition to fewer and larger LDLc particles”. In the data set on obese rhesus monkeys (in each monkey), the Fasting insulin decrease result is listed as “more than 20%” and the “Serum TG concentration decrease” value is “more than 30%”. In the case of `Cc1cc(SCc2sc(-c3ccc(Br)cc3)nc2C)ccc1OCC(=O)O` [Example 69, 2-{2-Methyl-4-[({4-methyl-2-[4-bromophenyl]-1,3-thiazol-5-yl}methyl)sulfanyl]phenoxy}acetic Acid], the melting point is > 250 °C. `Cc1cc(SCc2sc(-c3ccc(Cl)cc3)nc2C)ccc1OCC(=O)O` [Example 71, 2-{2-Methyl-4-[({4-methyl-2-[4chlorophenyl]-1,3-thiazol-5-yl}methyl)sulfanyl]phenoxy}acetic Acid]: the melting point came to 109 °C. On the same count and under the same terms, then `Cc1cc(SCc2sc(-c3ccc(F)cc3)nc2C)ccc1OCC(=O)O` [Example 73, 2-{2-Methyl-4-[({4-methyl-2-[4-fluorophenyl]-1,3-thiazol-5-yl}methyl)sulfanyl]phenoxy}acetic Acid], with 45 to 46 °C. The same measure, in the same setting: the result for `Cc1cc(SCc2sc(-c3ccc(Cl)c(Cl)c3)nc2C)ccc1OCC(=O)O` [Example 75, 2-{2-Methyl-4-[({4-methyl-2-[3,4-dichlorophenyl]-1,3-thiazol-5-yl}methyl)sulfanyl]phenoxy}acetic Acid] reads 143 °C; that for `Cc1cc(SCc2sc(-c3ccc(F)c(F)c3)nc2C)ccc1OCC(=O)O` [Example 77, 2-{2-Methyl-4-[({4-methyl-2-[3,4-difluorophenyl]-1,3-thiazol-5-yl}methyl)sulfanyl]phenoxy}acetic Acid], 119 °C; that for `Cc1cc(SCc2sc(-c3cc(C(F)(F)F)cc(C(F)(F)F)c3)nc2C)ccc1OCC(=O)O` [Example 79, 2-{2-Methyl-4-[({4-methyl-2-[3,5-bis(trifluoromethyl)phenyl]-1,3-thiazol-5-yl}methyl)sulfanyl]phenoxy}acetic Acid], 178 °C.

Source of the values: US6710063B1, “Activators of PPAR delta” (SmithKline Beecham Corporation, priority 1999, dated 2004).
